From patent US4804660A, “Ergot cyclic peptide alkaloids having a venotonizing effect, useful for treating orthostatic hypotension” (Sandoz Ltd., priority 1981, dated 1989)

Key:
rat = experiment: apomorphine stereotypy test / stereotypy in the rat; format: in vivo; details: 30 mg/kg i.p.
Description: The compounds moreover induce stereotypy in the rat at a dose of about 30 mg/kg i.p.
and has a score. in the apomorphine stereotypy test of 15.7 at 30 mg/kg i.p .

rat brain = experiment: carbon-14-2-deoxyglucose autoradiographic technique, local cerebral glucose utilisation; format: in vivo; details: 3 mg/kg i.p.
Description: Moreover the compounds increase the local cerebral glucose utilisation in the sensomotor cartex, e.g. Hippocampus, Nucleus habenula, Nucleus corpus gentcul . As indicated by the carbon-14-2-deoxyglucose autoradiographic technique with the rat brain on administration i.p. of from about 0.3 to about 30 mg/kg of the compounds [for method see e.g. L. Solokoff, Journal of Cerebral Blood Flow and Metabolism, 1981, (1), 7-36, H. E. Savaki et al. Brain Research 1982, 233, 347 and J. McCulloch et al. Journal of Cerebral Blood Flow and Metabolism 1981, 1, 133-136.

2-methyl-9,10-dihydro-9'-thia-α-ergocryptine
score in the apomorphine stereotypy test (rat): 15.7
increase in local cerebral glucose utilisation, Hippocampus (rat brain; Hippocampus): +2%
increase in local cerebral glucose utilisation, Nucleus dors.corpus genicul.lat (rat brain; Nucleus dors.corpus genicul.lat): +25%
increase in local cerebral glucose utilisation, Nucleus lateralis huberula (rat brain; Nucleus lateralis huberula): +22%
